Measurements as given in patent US20050148495A1, “Methods and materials including for treating acne” (priority 2003, published 2005).
Values after ≈ are worked out from the molar mass of the structure shown. Read-outs that look alike come from different tables or passages of the source. Non-standard residues stand in square brackets, D forms with d. Residues, ends and D or L forms follow the SMILES beside them. d1Nal = N[C@H](Cc1cccc2ccccc12)C(=O)O

Experiments:
in vivo [1] = conditions: both, Sprague-Dawley, rat, plasma, 0.2 mg/kg
Experimental: Using non-radiolabeled XMP.629, a pharmacokinetic study was conducted in an analogous manner as described above for ^3H-XMP.629. However, in this study, a 0.05 or a 0.2 mg/kg intravenous dose of XMP.629 was administered to 2 males and 2 females rats. Blood samples were collected for 168 hours following dosing and plasma XMP.629 concentrations were measured using liquid chromatography/mass spectrometry (LC/MS).
E. coli 07:K1 = assay: Acute peritonitis model (survival); assay type: in vivo, mice; conditions: 10 mg/kg intraperitoneally; 1.4×10^7 CFU E. coli 07:K1; seven days
Experimental: In additional studies in an acute peritonitis model, mice were challenged intraperitoneally with 1.4×10^7 CFU E. coli 07:K1 and treated intraperitoneally with XMP.629 at 1, 3, or 10 mg/kg or saline. Mice were observed twice daily and mortality was recorded for seven days. Statistical comparisons between the treatment groups and saline were performed using a Chi Square test. […] At 10 mg/kg, 87% protection was observed. In additional studies, XMP.629 was safely administered at a dose of 20 mg/kg intravenously.

protease = assay: Resistance to protease degradation
Experimental: In additional studies, a variety of formulations of XMP.629 were tested for stability under various temperatures, such as 25° C., 40° C., and 50° C., and at various time points, such as 0.5, 1, and 2 months.

Propionibacterium acnes = Propionibacterium acnes 6919
[2] = test system: Propionibacterium isolates; conditions: 15 isolates
Experimental: Inoculum from a representative panel of bacterial strains associated with acne, such as P. acnes, P. avidum, P. granulosum, and Staphylococcus epidermis was prepared by suspending approximately 5-10 isolated bacterial colonies in pre-reduced MicroScan® Inoculum Water (Dade Behring, Deerfield, Ill.), and growing the bacterial suspension to log phase (approximately 48 hrs). An inoculum of between 1-5×10^6/mL was achieved by adding 100 μL of the suspension to 25 mL Brain Heart Infusion Broth (BHI) (Anaerobe Systems, Morgan Hill, Calif.).
Control tubes containing only water or formulation buffer were prepared for each isolate. Initial growth controls were determined by removing 10 μL from the water control tube and diluting it by 100 fold. From this dilution, 10 μL was used for inoculation and for spreading over the surface onto Laked Blood Agar (LBA) (Anaerobe Systems, Morgan Hill, Calif.) plates. The tubes and plates were incubated in an anaerobic atmosphere at 37° C. for 48 h. […] MBC50 and 90 values represent where 50 and 90%, respectively, of the tested strain's MBC values are equal to or less than the indicated concentration.

[3] = test system: P. acnes strain ATCC 6919; assay: Kill curves / kill kinetics; assay type: cell-based, Propionibacterium acnes
Experimental: Kill curves were generated by incubating P. acnes strain ATCC 6919 with formulation buffer solutions of XMP.629 or other antibiotics at concentrations of […]. Samples were removed and plated at the indicated time periods. After incubation, colonies were counted and the kill kinetics determined for each drug.
For example, at a higher concentration of 4 μg/mL, a rapid reduction of viable cells in 8 hours to undetectable levels was observed. […] In additional kill curve studies against P. acnes, XMP.629 was bactericidal within 6 hours of exposure.

[4] = test system: CD [Crl:CD (SD) IGS BR] rats; assay: Rat acute oral toxicity test; assay type: in vivo
Experimental: XMP.629 was evaluated for acute toxicity following a single dose by oral gavage. The study consisted of three treatment groups of five male and five female CD [CrI:CD (SD) IGS BR] rats which received XMP.629 as a gel at concentrations of 0.1, 0.5, and 1.0% of XMP.629 respectively at a volume of 10 mL/kg. An additional group of five rats per sex served as the control and received control gel at the same volume. All rats were observed twice daily for morbidity, mortality, injury, and availability of food and water. Body weights were measured pretest and at different intervals during the study for all rats; observations for clinical signs were conducted pretest and at approximately 2 and 4 hours following the dose; and daily clinical observations were conducted daily until Day 14. At study termination, gross necropsies were conducted and macroscopic observations were recorded for all animals.

in vivo [5] = conditions: both, rat, plasma, po, 10 mg/kg, mean; for bioavailability: % F (bioavailability); for AUC: AUCall
[6] = parameters: decrease of plasma levels within the first 12 hours: dose or concentration left out as unconfirmed; conditions: for T1/2α / T1/2β / T1/2γ / T1/4 average / Vc: Sinclair mini-pig
CHO cells = assay: CHO chromosomal aberration test; assay type: cell-based, Chinese Hamster; conditions: with and without metabolic activation
Experimental: XMP.629 was next evaluated for activity to induce chromosomal aberrations in cultured CHO cells with and without an exogenous metabolic activation system. […] The assay design for these chromosomal aberration studies was based on OECD Guideline 473, updated and adopted Jul. 21, 1997. XMP.629 was provided as a 20.0 mg/mL stock in 10 mM sodium acetate buffer (pH 6). This solution and its dilutions prepared in cell culture grade water were dosed at 10% vol/vol (100 pUL/mL). The vehicle control cultures were treated with 100 μL/mL of cell culture grade water. In the initial assay, the treatment period was for 3.0 hours with and without metabolic activation at various concentrations of XMP.629 (30, 60, 120, 240, 480, 686, 980, 1400 and 2000 μg/mL) and cultures were harvested 20.0 hours from the initiation of treatment. Those cultures that were treated with 30, 60 and 120 pg/mL were analyzed for chromosomal aberrations. No significant increase in cells with chromosomal aberrations, polyploidy or endoreduplication was observed. In a confirmatory assay that included lower doses, the treatment period was 20 hours without metabolic activation (3.75, 7.5,15, 30, 60, 90, 120, 160, 200 and 240 μg/mL) and 3 hours with metabolic activation (15, 30, 60, 90, 120, 160, 200, 240, 300 and 360 μg/mL). […]

Streptococcus mutans = assay: MIC, panel of human pathogens, standardized NCCLS protocols; assay type: cell-based; conditions: Streptococcus mutans 25175
Streptococcus sobrinus = Streptococcus sobrinus 27607
[7] = test system: Enterococcus faccium (VRE); conditions: Enterococcus faccium 700221 (VRE)
[8] = Formulation Buffer Solvent, Study 1
[9] = Formulation Buffer Solvent, Study 2
[10] = 10 mg/kg XMP.629 acetate oral gavage in 5% glucose
[11] = 10 mg/kg XMP.629 acetate oral gavage in distilled water
[12] = 0.05 mg/kg XMP.629 acetate short IV infusion
[13] = 0.2 mg/kg XMP.629 acetate short IV infusion

CC(C)C[C@@H](NC(=O)[C@H](N)CCCCN)C(=O)N[C@H](Cc1ccccc1)C(=O)N[C@H](CCCNC(=N)N)C(=O)N[C@H](Cc1cccc2ccccc12)C(=O)N[C@H](CCC(N)=O)C(=O)N[C@H](C)C(=O)N[C@H](CCCCN)C(=O)N[C@H](Cc1cccc2ccccc12)C(N)=O [XMP.629, NH2-lys-leu-phe-arg-(3-(1-naphthyl)-ala)-gln-ala-lys-(3-(1-naphthyl)-ala)-CONH2] (H-[dK][dL][dF][dR][d1Nal][dQ][dA][dK][d1Nal]-NH2)
clearance (in vivo [1]; intravenous): ~5.33 mL/min/kg | half-life (in vivo [1]; intravenous, alpha half-life, two compartment model): ~20 min | half-life (in vivo [1]; intravenous, terminal half-life, two compartment model): ~960 min | AUC (in vivo [1]; iv): 744 ng·h/mL | clearance (in vivo [1]; iv): 5.32 mL/min/kg | Vd (in vivo [1]; iv, Vc (volume of distribution of the central compartment), non-labeled XMP.629, 0.2 mg/kg intravenous, LC/MS, two compartment model, mean): 0.202 L/kg | Vd (in vivo [1]; iv, Vss (volume of distribution at steady state), non-labeled XMP.629, 0.2 mg/kg intravenous, mean): 2.25 L/kg | half-life (in vivo [1]; iv, t1/2 (average half-life), non-labeled XMP.629, 0.2 mg/kg intravenous, mean): 26.4 min | half-life (in vivo [1]; iv, t1/2 α (α half-life), non-labeled XMP.629, 0.2 mg/kg intravenous, mean): 21.2 min | half-life (in vivo [1]; iv, t1/2 β (β half-life), non-labeled XMP.629, 0.2 mg/kg intravenous, mean): 972 min | protection (survival) (E. coli 07:K1): 87% | protease degradation (protease): substantially resistant to protease degradation | Minimum Inhibitory Concentrations (Propionibacterium acnes): 1.00 µg/mL | MBC GeoMean Values [2, 8]: 1.2 µg/mL (≈ 0.935 µM) | MIC GeoMean Values [2, 8]: 0.7 µg/mL (≈ 0.545 µM) | MBC GeoMean Values [2, 9]: 1.10 µg/mL (≈ 0.857 µM) | MIC GeoMean Values [2, 9]: 0.7 µg/mL (≈ 0.545 µM) | MBC GeoMean Values ([2]; Water Solvent, Study 1): 2.41 µg/mL (≈ 1.88 µM) | MIC GeoMean Values ([2]; Water Solvent, Study 1): 1.7 µg/mL (≈ 1.32 µM) | MBC GeoMean Values ([2]; Water Solvent, Study 2): 1.9 µg/mL (≈ 1.48 µM) | MIC GeoMean Values ([2]; Water Solvent, Study 2): 1.7 µg/mL (≈ 1.32 µM) | time to reduction of viable cells to undetectable levels ([3]; 4 μg/mL): 8 h | exposure time until bactericidal ([3]; additional kill curve studies against P. acnes): ≤ 6 h | culture at 19 hours ([3]; all concentrations tested): no detected organisms | contact time to kill the microorganisms ([3]; depending on dose): up to 10 hours | clinical observation ([4]; 1.0% XMP.629, four hours after administration, four males and one female, resolved by Day 2): Decreased activity | clinical signs ([4]; concentrations of 0.1 or 0.5% XMP.629): No clinical signs of systemic toxicity | minimum lethal dose ([4]; single oral gavage of gel, 10 mL/kg (10 mg/mL)): > 1 % XMP.629 | bioavailability (in vivo [5]; [10]): 0.0044% | bioavailability (in vivo [5]; [11]): 0.0015% | AUC (in vivo [5]; [10]): 1.67 ng·h/mL | AUC (in vivo [5]; [11]): 0.55 ng·h/mL | Cmax (in vivo [5]; [10]): 4.6 ng/mL | Cmax (in vivo [5]; [11]): 1.5 ng/mL | Tmax (in vivo [5]; [10]): 11.4 min | Tmax (in vivo [5]; [11]): 8.4 min | T1/2α [6, 12]: 5.46 min | T1/2β [6, 12]: 76.8 min | T1/2γ [6, 12]: 900 min | T1/4 average [6, 12]: 0.36 h | Vc [6, 12]: 0.0674 L/kg | T1/2α [6, 13]: 1.86 min | T1/2β [6, 13]: 61.8 min | T1/2γ [6, 13]: 924 min | T1/4 average [6, 13]: 0.58 h | Vc [6, 13]: 0.1018 L/kg | decrease of plasma levels within the first 12 hours ([6]; short IV infusion): 100 fold | chromosomal aberrations in CHO cells (CHO cells): negative | Minimum Inhibitory Concentrations (Streptococcus mutans): ≦1 μg/mL | Minimum Inhibitory Concentrations (Streptococcus sobrinus): 2.00 µg/mL | Minimum Inhibitory Concentrations [7]: 2.00 µg/mL
